Results on nine compounds are retold here after ChEMBL document CHEMBL1201862, “PubChem BioAssay data set” (2004).

Some test systems named below: A549; COLO 205; DU-145; HCT-15; HL-60; HOP-62; IGROV-1; K562; MDA-MB-231; Malme-3M; RPMI-8226; SR; SW-620; TK-10; UACC-62; HCT-116; NCI-H226; NCI-H460; U-251; Hs-578T.
What all share (assay): NCI anticancer screen, dose series, 48 h

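All cell lines were grown in 96-well plates and treated with compound for 48 hours. Abbreviation: GI50, concentration required for 50% inhibition of growth.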 The source made the active and inactive calls. No stated cut-off is given here; in the data, active = GI50 up to about 1.1 µM and inactive = higher.

On to `COc1c(F)c(F)c(C(=O)/C=C2\Nc3ccccc3NC2=O)c(F)c1F`, for which the GI50 was 9.16 µM (inactive) in the test with A549; > 10 µM (inactive) with COLO 205; > 10 µM (inactive) in the test with DU-145; above 10 µM in the test with HCT-15; > 10 µM (inactive) in the test on HL-60; 4.41 µM (inactive) in the test with HOP-62. Also, the GI50 with IGROV-1 is 7.33 µM (inactive); in the test on K562, > 10 µM (inactive); with MDA-MB-231 it was > 10 µM (inactive); with Malme-3M it was > 10 µM (inactive); in the test on RPMI-8226, > 10 µM (inactive); with SR it was > 10 µM (inactive). For the same compound, the GI50 with SW-620 is 8.38 µM (inactive); in the test with TK-10, > 10 µM (inactive); with UACC-62, > 10 µM (inactive).

`O=C(/C=C/c1ccc(C(F)(F)F)cc1)c1c([O-])on[n+]1-c1ccccc1`: the GI50 in the test with A549 was 4.03 µM (inactive); with COLO 205, 1.75 µM (inactive); in the test on DU-145 it was 2.21 µM (inactive); with HCT-116, 1.75 µM (inactive); with HCT-15, 1.31 µM; in the test with HL-60 it was 0.173 µM (active). The GI50 was 3.95 µM (inactive) in the test on HOP-62; 1.86 µM (inactive) with IGROV-1; 0.395 µM (active) in the test on K562; 4.53 µM (inactive) in the test with MDA-MB-231; > 100 µM (inactive) in the test on Malme-3M; 6 µM (inactive) in the test with NCI-H226. The GI50 in the test with NCI-H460 is 2.29 µM (inactive); in the test with RPMI-8226, 0.261 µM (active); in the test on SR, 0.196 µM (active); with SW-620, 1.37 µM (inactive); with TK-10, 1.65 µM (inactive); in the test on U-251, 1.83 µM (inactive). In addition, the GI50 in the test on UACC-62 is 1.47 µM (inactive).

With `O=C1NC(Nc2ccccc2Cl)=N/C1=C\c1c(Cl)cccc1Cl`, the GI50 with A549 was 30.4 µM (inactive); in the test with COLO 205, 27.7 µM (inactive); in the test on DU-145, 37.2 µM (inactive); with HCT-116, 22.5 µM (inactive); with HCT-15, 25.5 µM; in the test with HL-60, 18.6 µM (inactive). For the same compound, the GI50 was 39.7 µM (inactive) in the test with HOP-62; 28.8 µM (inactive) with Hs-578T; 25.8 µM (inactive) in the test on IGROV-1; 17.1 µM (inactive) with K562; 31.1 µM (inactive) with Malme-3M; 42.5 µM (inactive) with NCI-H226. For the same compound, the GI50 is 24.9 µM (inactive) in the test on NCI-H460; 20.6 µM (inactive) in the test on RPMI-8226; 5.52 µM (inactive) in the test with SR; 37.5 µM (inactive) with SW-620; 30.9 µM (inactive) with TK-10; 8.43 µM (inactive) with U-251. Further, the GI50 in the test on UACC-62 is 32.1 µM (inactive).

As for `CCOc1cc(NC(C)=O)ccc1C(=O)NNS(=O)(=O)c1ccc(Cl)cc1Cl`, the GI50 with A549 was > 50 µM (inactive); with COLO 205, > 50 µM (inactive); in the test with DU-145, > 50 µM (inactive); with HCT-116, > 50 µM (inactive); in the test on HCT-15, above 50 µM; in the test with HL-60 it was > 50 µM (inactive). In addition, the GI50 with HOP-62 is > 50 µM (inactive); in the test on Hs-578T it was > 50 µM (inactive); with IGROV-1, > 50 µM (inactive); in the test with K562 it was 0.232 µM (active); with Malme-3M, > 50 µM (inactive); in the test on NCI-H226 it was > 50 µM (inactive). Moreover, the GI50 in the test on NCI-H460 was > 50 µM (inactive); with RPMI-8226, 7.48 µM (inactive); in the test on SR it was 13.9 µM (inactive); in the test with SW-620 it was > 50 µM (inactive); with UACC-62, > 50 µM (inactive).

As to `COC(=O)C(=O)C(C(=O)C(=O)Nc1ccc(Cl)c(Cl)c1)c1nc2ccc(C(=O)c3ccccc3)cc2nc1O` (configuration not stated), the GI50 in the test on A549 was > 100 µM (inactive); in the test with HCT-116 it was 61.4 µM (inactive); with HL-60, 45 µM (inactive); in the test with HOP-62, 41.6 µM (inactive); in the test on Hs-578T it was 22.1 µM (inactive); in the test with IGROV-1, 33.5 µM (inactive). The GI50 was < 0.01 µM (active) in the test on K562; 51.3 µM (inactive) in the test on MDA-MB-231; 73.8 µM (inactive) in the test with Malme-3M; 56.4 µM (inactive) with NCI-H226; 40.2 µM (inactive) in the test on RPMI-8226; 46.9 µM (inactive) in the test on SW-620. Further, the GI50 with TK-10 was > 100 µM (inactive); in the test on U-251, 71 µM (inactive); in the test with UACC-62, > 100 µM (inactive).

Turning to `CCN(CC)C(=O)CCn1ccc(=O)[nH]c1=O`, the GI50 in the test on A549 was > 100 µM (inactive); in the test on COLO 205, > 100 µM (inactive); in the test with HCT-116 it was > 100 µM (inactive); in the test with HCT-15, above 100 µM; in the test on HL-60 it was > 100 µM (inactive); in the test with HOP-62, > 100 µM (inactive). Besides, the GI50 with IGROV-1, in the test on K562, with Malme-3M, with NCI-H226, in the test with NCI-H460 and in the test on RPMI-8226 was > 100 µM (inactive) in each case. Further, the GI50 in the test with SR, with SW-620, with TK-10, in the test on U-251 and in the test with UACC-62 was > 100 µM (inactive) in each case.

`OC(c1ccc(F)cc1)C(F)(F)c1nc2ccccc2o1` (configuration not stated): the GI50 with COLO 205 was > 100 µM (inactive); in the test with DU-145, 47 µM (inactive); in the test with HCT-116, > 100 µM (inactive); in the test with HCT-15, above 100 µM; with HL-60 it was > 100 µM (inactive); in the test on HOP-62, 62.5 µM (inactive). The GI50 is > 100 µM (inactive) in the test with IGROV-1; 30.8 µM (inactive) in the test with K562; 83.8 µM (inactive) with MDA-MB-231; > 100 µM (inactive) in the test with NCI-H226; > 100 µM (inactive) with NCI-H460; 90.6 µM (inactive) in the test on RPMI-8226. The GI50 with SR, in the test with SW-620, with TK-10, in the test with U-251 and with UACC-62 was > 100 µM (inactive) each time.

Take `O=[N+]([O-])c1ccc(/N=N/c2c(O)ccc3cc(S(=O)(=O)O)ccc23)cc1`: the GI50 in the test on A549 was > 100 µM (inactive); in the test on COLO 205, > 100 µM (inactive); in the test on DU-145 it was > 100 µM (inactive); in the test on HCT-116 it was > 100 µM (inactive); with HCT-15 it was above 100 µM; in the test with HOP-62, > 100 µM (inactive). In addition, the GI50 with Hs-578T, in the test on IGROV-1, with K562, in the test with MDA-MB-231, in the test on Malme-3M and in the test with RPMI-8226 was > 100 µM (inactive) throughout. Besides, the GI50 in the test on SW-620, in the test on TK-10, in the test with U-251 and in the test with UACC-62 was > 100 µM (inactive) in each case.

In the case of `O=C(NCO)NCOCn1c(=O)n(CO)c(=O)n(CO)c1=O`, the GI50 in the test with A549 was 66.7 µM (inactive); with COLO 205, 27.4 µM (inactive); in the test on HCT-116, 31.6 µM (inactive); with HCT-15, 23.8 µM; in the test with HL-60, 22.3 µM (inactive); with HOP-62, > 100 µM (inactive). The GI50 with IGROV-1 was > 100 µM (inactive); in the test on K562 it was 32.1 µM (inactive); in the test with Malme-3M, 31.5 µM (inactive); in the test on NCI-H226, > 100 µM (inactive); in the test on NCI-H460 it was 33.1 µM (inactive); in the test with RPMI-8226 it was 25.4 µM (inactive). For the same compound, the GI50 in the test with SR was 29.2 µM (inactive); in the test on SW-620 it was 21.3 µM (inactive); in the test on TK-10, > 100 µM (inactive); in the test with U-251, > 60.8 µM (inactive); with UACC-62 it was 19.1 µM (inactive).
